# Target: T1, IRAK4 (Homo sapiens, UniProt Q9NWZ3)
# T1 construct: endogenous in cells; host or cells: OCI-LY10
# T1 sequence (Q9NWZ3 1-460): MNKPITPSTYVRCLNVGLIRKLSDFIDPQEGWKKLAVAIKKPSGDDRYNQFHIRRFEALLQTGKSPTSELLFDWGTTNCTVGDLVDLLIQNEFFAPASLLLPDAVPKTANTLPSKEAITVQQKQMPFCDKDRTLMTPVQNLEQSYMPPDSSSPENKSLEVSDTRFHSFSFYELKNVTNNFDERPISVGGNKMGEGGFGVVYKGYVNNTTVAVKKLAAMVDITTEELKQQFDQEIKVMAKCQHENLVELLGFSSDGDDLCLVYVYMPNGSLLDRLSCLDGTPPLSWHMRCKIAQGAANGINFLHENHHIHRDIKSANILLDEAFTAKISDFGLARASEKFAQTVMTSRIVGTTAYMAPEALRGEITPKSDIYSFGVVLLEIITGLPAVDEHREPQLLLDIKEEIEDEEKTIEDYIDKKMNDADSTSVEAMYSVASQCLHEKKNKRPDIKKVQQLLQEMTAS
# Assay: IRAK4 MSD degradation in OCI-LY10
# Assay type: cell-based
# Settings: OCI-LY10 cells, 24 hrs, Meso Scale Discovery
# Experimental: Degradation of IRAK4 in OCI-LY10 was quantitatively measured using Meso Scale Discovery technology. […] Compounds were then added to the assay plates with a final top concentration of 1 to 10 μM in a 1:3 dilution series with total of 8 doses. The assay plates were then incubated for 4 to 24 hours at 37° C. under 5% CO2. […] To prepare MSD assay plates (Meso Scale Discovery Catalog number L15XA-3), the plates were coated with 2 μg/mL capture antibody (mouse Anti-IRAK4 antibody [2H9], ab119942) in PBS, at 40 μL/well. […] Cell lysates were then added to MSD assay plates and the plates were incubated at room temperature for 1 hour. The plates were then washed 3 times with 150 μL/well TBST buffer and 25 μL/well primary detection antibody (rabbit Anti-IRAK4 antibody [Y279], from Abcam. Catalog number ab32511, 1 μg/mL). The assay plates were then incubated at room temperature for 1 hour, washed 3 times with 150 μL/well TBST buffer and 25 μL/well secondary detection antibody, SULFO-TAG anti-rabbit antibody were added (anti-rabbit antibody from Meso Scale Discovery, Catalog number R32AB-1, 1 μg/mL). The assay plates were then incubated at room temperature for 1 hour, washed 3 times with 150 μL/well TBST buffer, and 150 μL/well MSD reading buffer (Meso Scale Discovery catalog number R92TC-2) was added. The plates were then analyzed by a MSD reader (Meso Scale Discovery, Model Quick Plex SQ 120). The data was then analyzed by software Prism 7.0 from GraphPad and the dose-depended IRAK4 degradation were fit using a three-parameter logistic equation to calculate DC50.
# The letter codes for IRAK4 DC50 include: A (<0.01 μM); B (0.01 to <0.1 μM); C (0.1 to 0.2 μM); D (>0.2 μM) and E (not tested).
row,Compound,DC50
1,"CN(C[C@H]1C[C@@H](n2cc(NC(=O)c3cnn4ccc(N5C[C@H]6C[C@@H]5CO6)nc34)c(C(F)F)n2)C1)[C@H]1CCN(c2cccc3c2n(C)c(=O)n3C2CCC(=O)NC2=O)C[C@@H]1F (single isomer, unassigned) [I-4]",< 10 nM
2,"CN(C[C@H]1C[C@H](n2cc(NC(=O)c3cnn4ccc(N5C[C@H]6C[C@@H]5CO6)nc34)c(C(F)F)n2)C1)[C@H]1CCN(c2cccc3c2n(C)c(=O)n3C2CCC(=O)NC2=O)C[C@@H]1F (single isomer, unassigned) [I-6]",< 10 nM
3,"Cn1c(=O)n(C2CCC(=O)NC2=O)c2cccc([C@H]3CCN(C[C@H]4CC[C@H](n5cc6cc(NC(=O)c7cccc(C(F)(F)F)n7)ccc6n5)CC4)C[C@@H]3F)c21 (single isomer, unassigned) [I-11]",< 10 nM
4,"Cn1c(=O)n(C2CCC(=O)NC2=O)c2cccc([C@@H]3CCN(C[C@H]4CC[C@H](n5cc6cc(NC(=O)c7cccc(C(F)(F)F)n7)ccc6n5)CC4)C[C@H]3F)c21 (single isomer, unassigned) [I-12]",< 10 nM
5,"CN(C[C@H]1CC[C@H](n2cc(NC(=O)c3cnn4ccc(N5C[C@H]6C[C@@H]5CO6)nc34)c(C(F)F)n2)CC1)[C@@H]1CCN(c2cccc3c2n(C)c(=O)n3C2CCC(=O)NC2=O)C[C@@H]1F (single isomer, unassigned) [I-29]",< 10 nM
6,"CN(C[C@H]1CC[C@H](n2cc3cc(NC(=O)c4cccc(C(F)(F)F)n4)ncc3n2)CC1)[C@H]1CCN(c2cccc3c2n(C)c(=O)n3C2CCC(=O)NC2=O)C[C@@H]1F (single isomer, unassigned) [I-36]",10 to 100 nM
7,"CN(C[C@H]1C[C@H](n2cc(NC(=O)c3cnn4ccc(N5C[C@H]6C[C@@H]5CO6)nc34)c(C(F)F)n2)C1)[C@@H]1CCN(c2cccc3c2n(C)c(=O)n3C2CCC(=O)NC2=O)C[C@@H]1F (single isomer, unassigned) [I-59]",< 10 nM
8,"CN(C[C@H]1C[C@H](n2cc(NC(=O)c3cnn4ccc(N5C[C@H]6C[C@@H]5CO6)nc34)c(C(F)F)n2)C1)[C@H]1CCN(c2cccc3c2n(C)c(=O)n3C2CCC(=O)NC2=O)C[C@H]1F (single isomer, unassigned) [I-60]",< 10 nM
9,"O=C1CCC(Nc2ccc(N3CC(CO[C@@H]4CCN(C[C@H]5CC[C@H](n6cc(NC(=O)c7cnn8ccc(N9C[C@H]%10C[C@@H]9CO%10)nc78)c(C(F)F)n6)CC5)C[C@@H]4F)C3)cc2)C(=O)N1 (single isomer, unassigned) [I-73]",10 to 100 nM
10,"O=C1CCN(c2cncc3c(N4CC(CO[C@H]5CCN(C[C@H]6CC[C@H](n7cc(NC(=O)c8cnn9ccc(N%10C[C@H]%11C[C@@H]%10CO%11)nc89)c(C(F)F)n7)CC6)C[C@@H]5F)C4)cccc23)C(=O)N1 (single isomer, unassigned) [I-75]",10 to 100 nM
11,"COc1cc2nc([C@H]3CC[C@H](CN4CC[C@@H](c5cccc6c5n(C)c(=O)n6C5CCC(=O)NC5=O)[C@H](F)C4)CC3)sc2cc1NC(=O)c1cccc(C(F)(F)F)n1 (single isomer, unassigned) [I-78]",100 to 200 nM
12,"COc1cc2nc([C@H]3CC[C@H](CN4CC[C@H](c5cccc6c5n(C)c(=O)n6C5CCC(=O)NC5=O)[C@@H](F)C4)CC3)sc2cc1NC(=O)c1cccc(C(F)(F)F)n1 (single isomer, unassigned) [I-79]",> 200 nM
13,"O=C1CCC(Nc2ccc(N3CC(CO[C@H]4CCN(C[C@H]5CC[C@H](n6cc(NC(=O)c7cnn8ccc(N9C[C@H]%10C[C@@H]9CO%10)nc78)c(C(F)F)n6)CC5)C[C@@H]4F)C3)cc2)C(=O)N1 (single isomer, unassigned) [I-85]",10 to 100 nM
14,"COc1cc2nc([C@H]3CC[C@H](CN4CC[C@H](c5cccc6c5n(C)c(=O)n6C5CCC(=O)NC5=O)[C@@H](F)C4)CC3)oc2cc1NC(=O)c1cccc(C(F)(F)F)n1 (single isomer, unassigned) [I-89]",> 200 nM
15,"Cn1c(=O)n(C2CCC(=O)NC2=O)c2cccc([C@@H]3CCN(C[C@H]4CC[C@H](n5cc6cc(NC(=O)c7cccc(C(F)(F)F)n7)c(C#N)cc6n5)CC4)C[C@H]3F)c21 (single isomer, unassigned) [I-95]",< 10 nM
16,"Cn1c(=O)n(C2CCC(=O)NC2=O)c2cccc([C@H]3CCN(C[C@H]4CC[C@H](n5cc6cc(NC(=O)c7cccc(C(F)(F)F)n7)c(C#N)cc6n5)CC4)C[C@@H]3F)c21 (single isomer, unassigned) [I-96]",< 10 nM

row,Compound,DC50
1,"COc1cc2nc([C@H]3CC[C@H](CN(C)[C@@H]4CCN(c5cccc6c5n(C)c(=O)n6C5CCC(=O)NC5=O)C[C@H]4F)CC3)sc2cc1NC(=O)c1cccc(C(F)(F)F)n1 (single isomer, unassigned) [I-98]",10 to 100 nM
2,"COc1cc2nc([C@H]3CC[C@H](CN(C)[C@@H]4CCN(c5cccc6c5n(C)c(=O)n6C5CCC(=O)NC5=O)C[C@@H]4F)CC3)sc2cc1NC(=O)c1cccc(C(F)(F)F)n1 (single isomer, unassigned) [I-99]",< 10 nM
3,"COc1cc2nn([C@H]3CC[C@H](CN4CC[C@H](c5cccc6c5n(C)c(=O)n6C5CCC(=O)NC5=O)[C@@H](F)C4)CC3)cc2cc1NC(=O)c1cncc(C#N)c1 (single isomer, unassigned) [I-100]",< 10 nM
4,"COc1cc2nn([C@H]3CC[C@H](CN4CC[C@@H](c5cccc6c5n(C)c(=O)n6C5CCC(=O)NC5=O)[C@H](F)C4)CC3)cc2cc1NC(=O)c1cncc(C#N)c1 (single isomer, unassigned) [I-101]",< 10 nM
5,"COc1cc2nc([C@H]3CC[C@H](CN4CC[C@@H](c5cccc6c5n(C)c(=O)n6C5CCC(=O)NC5=O)[C@H](F)C4)CC3)oc2cc1NC(=O)c1cccc(C(F)(F)F)n1 (single isomer, unassigned) [I-121]",10 to 100 nM
6,"CN(C[C@H]1CC[C@H](n2cc(NC(=O)c3cnn4ccc(N5C[C@H]6C[C@@H]5CO6)nc34)c(C(F)F)n2)CC1)[C@H]1CCN(c2cccc3c2n(C)c(=O)n3[C@@H]2CCC(=O)NC2=O)C[C@@H]1F (single isomer, unassigned) [I-143]",< 10 nM
7,"CN(C[C@H]1CC[C@H](n2cc(NC(=O)c3cnn4ccc(N5C[C@H]6C[C@@H]5CO6)nc34)c(C(F)F)n2)CC1)[C@H]1CCN(c2cccc3c2n(C)c(=O)n3[C@H]2CCC(=O)NC2=O)C[C@@H]1F (single isomer, unassigned) [I-144]",< 10 nM
8,"CN(C[C@H]1CC[C@H](n2cc(NC(=O)c3cnn4cccnc34)c(C(F)F)n2)CC1)[C@H]1CCN(c2cccc3c2n(C)c(=O)n3C2CCC(=O)NC2=O)C[C@H]1F (single isomer, unassigned) [I-145]",< 10 nM
9,"COc1ccc2c(c1N1CC[C@H](N(C)C[C@H]3CC[C@H](n4cc(NC(=O)c5cnn6cccnc56)c(C(F)F)n4)CC3)[C@@H](F)C1)n(C)c(=O)n2C1CCC(=O)NC1=O (single isomer, unassigned) [I-146]",< 10 nM
10,"COc1ccc2c(c1N1CC[C@H](N(C)C[C@H]3CC[C@H](n4cc(NC(=O)c5cnn6cccnc56)c(C(F)F)n4)CC3)[C@H](F)C1)n(C)c(=O)n2C1CCC(=O)NC1=O (single isomer, unassigned) [I-147]",< 10 nM
11,"COc1ccc2c(c1N1CC[C@@H](N(C)C[C@H]3CC[C@H](n4cc(NC(=O)c5cnn6cccnc56)c(C(F)F)n4)CC3)[C@H](F)C1)n(C)c(=O)n2C1CCC(=O)NC1=O (single isomer, unassigned) [I-152]",< 10 nM
12,"COc1ccc2c(c1N1CC[C@@H](N(C)C[C@H]3CC[C@H](n4cc(NC(=O)c5cnn6cccnc56)c(C(F)F)n4)CC3)[C@@H](F)C1)n(C)c(=O)n2C1CCC(=O)NC1=O (single isomer, unassigned) [I-153]",< 10 nM
13,"Cn1c(=O)n(C2CCC(=O)NC2=O)c2cccc([C@@H]3CCN(C[C@H]4CC[C@H](n5cc6cc(NC(=O)c7cncc(C(F)(F)F)n7)ccc6n5)CC4)CC3(F)F)c21 (single isomer, unassigned) [I-179]",< 10 nM
14,"COc1ccc2c(c1N1CC[C@@H](N(C)C[C@H]3CC[C@H](n4cc(NC(=O)c5cnn6cccnc56)c(C(F)F)n4)CC3)C(F)(F)C1)n(C)c(=O)n2C1CCC(=O)NC1=O (single isomer, unassigned) [I-204]",10 to 100 nM
15,"CN(C[C@H]1CC[C@H](c2cc3cc(NC(=O)c4cncc(C(F)(F)F)n4)ccn3n2)CC1)[C@@H]1CCN(c2cccc3c2n(C)c(=O)n3C2CCC(=O)NC2=O)C[C@@H]1F (single isomer, unassigned) [I-211]",> 200 nM

# From patent US20250059164A1, “IRAK DEGRADERS AND USES THEREOF” (Kymera Therapeutics, Inc., priority 2023, published 2025)
